compound: Cn1c(=O)n(-c2ccc(C(C)(C)C#N)cc2)c2c3cc(-c4cnc5ccccc5c4)ccc3ncc21 [Dactolisib]; assay: relative viability (nuclei count vs DMSO), 5 days (fraction); higher = more cells survive; settings: 0.002 µM
Summary of the method: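 Lung cancer cell lines were seeded into 1536-well plates, kept overnight at 37 °C and pinned with five library-drug doses (not always all listed) spaced by √10. After 5 days, nuclei were Hoechst-stained, imaged at 4× and counted with MetaXpress. Viability is treated-well nuclei over vehicle-well nuclei, taken as a median across plates. Plates needed control CV below 25% and at least one doubling.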

Cell Line	relative viability
NCI-H1395	0.781
201T	1.02
NCI-H1915	1.02
HCC-827	1.06
LXF-289	1.07
NCI-H23	1.05
NCI-H1299	1
NCI-H647	1.05
CAL-12T	1.01
NCI-H1651	1.01
EPLC-272H	1.01
NCI-H2228	1.13
NCI-H1792	1.04
NCI-H1355	1.05
NCI-H3122	0.993
NCI-H1437	1.01

Cell Line	relative viability
NCI-H1755	1.04
NCI-H2023	0.827
HCC-15	0.98
NCI-H1793	0.807
PC-14	1.05
EKVX	1.02
LC-2-ad	1.03
NCI-H1563	1
NCI-H1944	1.12
NCI-H1975	0.922
RERF-LC-KJ	1
ABC-1	0.954
NCI-H358	0.914
NCI-H650	1.07
PC-3 [JPC-3]	1.11

same assay, conditions: 0.006325 µM

Cell Line	relative viability
NCI-H1395	0.852
201T	1.01
NCI-H1915	1.03
HCC-827	1.05
LXF-289	1.04
NCI-H23	0.863
NCI-H1299	1.05
NCI-H647	0.824
CAL-12T	0.976
NCI-H1651	1
EPLC-272H	0.766
NCI-H2228	0.812
NCI-H1792	0.635
NCI-H1355	0.925
NCI-H3122	1.01
NCI-H1437	0.991

Cell Line	relative viability
NCI-H1755	0.976
NCI-H2023	0.875
HCC-15	0.974
NCI-H1793	0.569
PC-14	1.01
EKVX	0.971
LC-2-ad	0.959
NCI-H1563	0.928
NCI-H1944	0.973
NCI-H1975	0.957
RERF-LC-KJ	0.961
ABC-1	0.921
NCI-H358	0.895
NCI-H650	0.937
PC-3 [JPC-3]	1.03

same assay, conditions: 0.02 µM

Cell Line	relative viability
NCI-H1395	0.807
201T	0.992
NCI-H1915	1.02
HCC-827	0.955
LXF-289	1
NCI-H23	0.835
NCI-H1299	1.02
NCI-H647	0.691
CAL-12T	0.721
NCI-H1651	0.872
EPLC-272H	0.76
NCI-H2228	0.612
NCI-H1792	0.551
NCI-H1355	0.915
NCI-H3122	0.981
NCI-H1437	1.03

Cell Line	relative viability
NCI-H1755	0.963
NCI-H2023	0.579
HCC-15	0.985
NCI-H1793	0.474
PC-14	0.836
EKVX	0.858
LC-2-ad	1.06
NCI-H1563	0.885
NCI-H1944	0.917
NCI-H1975	0.824
RERF-LC-KJ	0.889
ABC-1	0.868
NCI-H358	0.834
NCI-H650	0.892
PC-3 [JPC-3]	1.03

same assay, conditions: 0.06325 µM

Cell Line	relative viability
NCI-H1395	0.67
201T	0.863
NCI-H1915	0.657
HCC-827	1.07
LXF-289	0.998
NCI-H23	0.372
NCI-H1299	0.769
NCI-H647	0.254
CAL-12T	0.342
NCI-H1651	0.555
EPLC-272H	0.569
NCI-H2228	0.38
NCI-H1792	0.317
NCI-H1355	0.479
NCI-H3122	0.99
NCI-H1437	0.914

Cell Line	relative viability
NCI-H1755	0.887
NCI-H2023	0.166
HCC-15	0.635
NCI-H1793	0.242
PC-14	0.33
EKVX	0.691
LC-2-ad	0.823
NCI-H1563	0.605
NCI-H1944	0.387
NCI-H1975	0.483
RERF-LC-KJ	0.497
ABC-1	0.719
NCI-H358	0.413
NCI-H650	0.747
PC-3 [JPC-3]	0.898

same assay, conditions: 0.2 µM

Cell Line	relative viability
NCI-H1395	0.577
201T	0.636
NCI-H1915	0.579
HCC-827	1.03
LXF-289	0.84
NCI-H23	0.335
NCI-H1299	0.885
NCI-H647	0.208
CAL-12T	0.323
NCI-H1651	0.434
EPLC-272H	0.403
NCI-H2228	0.197
NCI-H1792	0.175
NCI-H1355	0.369
NCI-H3122	0.751
NCI-H1437	0.741
NCI-H1755	0.742
NCI-H2023	0.12
HCC-15	0.422
NCI-H1793	0.241
PC-14	0.182
EKVX	0.417
LC-2-ad	0.58
NCI-H1563	0.562
NCI-H1944	0.402
NCI-H1975	0.315
RERF-LC-KJ	0.509
ABC-1	0.458
NCI-H358	0.272
NCI-H650	0.412
